# Values joined by “and” are separate entries in the source; they are usually repeats but may differ in a detail not shown here. Equal values may be shown once.
# Experiment: Phase I study: plasma pharmacokinetics of orally administered Compound 1
# Type: in vivo, human
# Settings: for AUC(0-inf) / AUC(0-t) / Cmax / half-life / Tmax: human, plasma, oral
# Excerpt: The study was designed as a multicenter, open-label Phase 1 study of orally administered Compound 1 in participants with R/R AML or participants with R/R intermediate- to high-risk MDS. […] Additional cohorts for participants with R/R intermediate- to high-risk MDS following hypomethylating agents or other AML cohorts may be added at a later time.
# Similar dosing may be used in the dose expansion part of the study. […] Additional intensive PK testing is collected for any participants undergoing intra-patient dose escalation.
# At the conclusion of the 900 mg QD cohort, subjects were enrolled in cohorts for BID dosing, starting with the 300 mg BID dosing.
# Subjects were treated with Compound 1 QD as described in Example 2.
# Subjects were treated with Compound 1 QD or BID dosing as described in Example 2 and blood samples were taken from subjects and analyzed as described in Example 3. Tables 16 and 17 show pharmacokinetic analyses for QD dosing for 100 mg, 175 mg, 275 mg, 350 mg, 400 mg and 900 mg cohorts and BID dosing for 300 mg and 350 mg cohorts. Abbreviations in Table 16 and Table 17: AR=Day 4 AUC0-24/Day 1 AUC0-24, NR=not reported; NA=not available. […] FIG. 9 and FIG. 10 show AUC for day 1 and day 4 of dosing with doses between 350-900 mg QD compared with 350 mg BID.
# [1] = 300 mg, 300 mg BID, Day 1, 1 subject
# [2] = 300 mg, 300 mg BID, Day 4, 1 subject
# [3] = 350 mg, 350 mg BID, Day 1, Mean
# [4] = 350 mg, 350 mg BID, Day 4, Mean
compound,measurement,setting,value
"Cc1cc2c(C(N)=O)cccc2n1-c1nc2c(c(NCc3ccccc3)n1)CCCN2 [Compound 1, 1-(4-(benzylamino)-5,6,7,8-tetrahydropyrido[2,3-d]pyrimidin-2-yl)-2-methyl-1H-indole-4-carboxamide]",exposure level increases between the doses,25 mg to 450 mg QD,generally proportional and linear
same,Cmax/Dose,"100 mg QD, Day 1, Mean",0.00372 µM/mg
same,exposure of BID dosing compared with QD dosing,"350 mg BID vs 600, 750 and 900 mg QD, Day 1",higher level of exposure
same,Cmax/Dose,"450 mg QD, Day 1, Mean",0.00481 µM/mg
same,AUC0-inf/Dose,"450 mg QD, Day 4, Mean",0.0853 µM·h/mg
same,AR,"Cohort 1 (25 mg QD), Day 4",0.914
same,plasma exposure compared with CB-5083,Compound 1 25 mg QD vs CB-5083 40 mg QD,significantly higher plasma exposure
same,accumulation,between days 1 and 4,No accumulation
same,plasma exposure compared with CB-5083,human subjects,significantly higher plasma exposure than CB-5083
same,AUC(0-inf),"100 mg, 100 mg QD, Day 1, Mean",1780 ng·h/mL and 4.31 µM·h
same,AUC(0-t),"100 mg, 100 mg QD, Day 1, Mean",1420 ng·h/mL and 3.43 µM·h
same,Cmax,"100 mg, 100 mg QD, Day 1, Mean",154 ng/mL and 372 nM
same,half-life,"100 mg, 100 mg QD, Day 1, Mean",6.87 h
same,AUC(0-inf),"100 mg, 100 mg QD, Day 4, Mean",3020 ng·h/mL and 7.32 µM·h
same,AUC(0-t),"100 mg, 100 mg QD, Day 4, Mean",2750 ng·h/mL and 6.66 µM·h
same,Cmax,"100 mg, 100 mg QD, Day 4, Mean",356 ng/mL and 861 nM
same,Tmax,"100 mg, 100 mg QD, Day 4, Mean",2.67 h
same,half-life,"100 mg, 100 mg QD, Day 4, Mean",7.84 h
same,AUC(0-inf),"175 mg, 175 mg QD, Day 1, Mean",5260 ng·h/mL and 12.7 µM·h
same,AUC(0-t),"175 mg, 175 mg QD, Day 1, Mean",4380 ng·h/mL and 10.6 µM·h
same,Cmax,"175 mg, 175 mg QD, Day 1, Mean",636 ng/mL
same,Tmax,"175 mg, 175 mg QD, Day 1, Mean",3.33 h
same,half-life,"175 mg, 175 mg QD, Day 1, Mean",11.4 h
same,AUC(0-inf),"175 mg, 175 mg QD, Day 4, Mean",2950 ng·h/mL and 7.13 µM·h
same,AUC(0-t),"175 mg, 175 mg QD, Day 4, Mean",8760 ng·h/mL and 21.2 µM·h
same,Cmax,"175 mg, 175 mg QD, Day 4, Mean",490 ng/mL and 1.19 µM
same,Tmax,"175 mg, 175 mg QD, Day 4, Mean",13.5 h
same,half-life,"175 mg, 175 mg QD, Day 4, Mean",6.01 h
same,AUC(0-inf),"275 mg, 275 mg QD, Day 1, Mean",4660 ng·h/mL and 11.3 µM·h
same,AUC(0-t),"275 mg, 275 mg QD, Day 1, Mean",4140 ng·h/mL and 10 µM·h
same,Cmax,"275 mg, 275 mg QD, Day 1, Mean",679 ng/mL and 1.65 µM
same,Tmax,"275 mg, 275 mg QD, Day 1, Mean",2.57 h
same,half-life,"275 mg, 275 mg QD, Day 1, Mean",5.08 h
same,AUC(0-inf),"275 mg, 275 mg QD, Day 4, Mean",9660 ng·h/mL and 23.4 µM·h
same,AUC(0-t),"275 mg, 275 mg QD, Day 4, Mean",9230 ng·h/mL and 22.4 µM·h
same,Cmax,"275 mg, 275 mg QD, Day 4, Mean",827 ng/mL and 2 µM
same,Tmax,"275 mg, 275 mg QD, Day 4, Mean",3.6 h
same,half-life,"275 mg, 275 mg QD, Day 4, Mean",8.9 h
same,AUC(0-t),[1],12200 ng·h/mL and 29.6 µM·h
same,Cmax,[1],965 ng/mL and 2.34 µM
same,Tmax,[1],12 h
same,AUC(0-inf),[2],27700 ng·h/mL and 67 µM·h
same,AUC(0-t),[2],27400 ng·h/mL and 66.4 µM·h
same,Cmax,[2],1920 ng/mL and 4.65 µM
same,Tmax,[2],3 h
same,AUC(0-inf),[3],29600 ng·h/mL and 71.8 µM·h
same,AUC(0-t),[3],14600 ng·h/mL and 35.3 µM·h
same,Cmax,[3],1340 ng/mL and 3.25 µM
same,Tmax,[3],7.63 h
same,AUC(0-inf),[4],31800 ng·h/mL and 77 µM·h
same,AUC(0-t),[4],23400 ng·h/mL and 56.7 µM·h
same,Cmax,[4],2020 ng/mL and 4.89 µM
same,Tmax,[4],3.25 h
same,AUC(0-inf),"350 mg, 350 mg QD, Day 1, Mean",5330 ng·h/mL and 12.9 µM·h
